Results on 13 compounds are retold here after patent US10266513B2 (Pfizer Inc., priority 2012, dated 2019).

In assay [1] the target is human full-length BTK Kinase (Homo sapiens (Human), UniProt Q06187). Briefly: Human BTK LanthaScreen Assay (TR-FRET). The format is biochemical. The following applies: 50 μM ATP, FAM-Srctide peptide substrate, read-out: BTK Inhibition IC50. The text has this:
Human BTK LanthaScreen Assay
(In general: Time-resolved FRET reads energy transfer from a long-lived donor to a nearby acceptor.)

For assay [2], the target named is human EGFR kinase domain (Homo sapiens (Human), UniProt P00533). Briefly: Human EGFR LanthaScreen Selectivity Assay (TR-FRET). The following applies: 20 μM ATP. In kind it is biochemical.
Method: The kinase reaction mixtures were incubated at room temperature for 60 minutes before stopping the kinase activity by the addition of 15 mM EDTA. The extent of peptide phosphorylation by EGFR was detected using a Terbium-conjugated anti-phospho-Tyrosine antibody (Tb-PT66 antibody, invitrogen # PV3557).
The test system of assay [3] is Human B cells. Briefly: Human Primary B Cell Proliferation Assay (3H-thymidine incorporation, anti-human IgM stimulated). In kind it is cell-based. The settings on record: purified human B cells, 50 μg/mL anti-human IgM F(ab')2, 72 hours. As for the experimental part:
Human Primary B Cell Proliferation Assay
Human B cells were purified from buffy coats using the human B cell RosetteSep kit per manufacturer's instructions. Purified cells were resuspended in RPMI-10% HIFCS, 2 mM L-glutamine, 100 U/mL penicillin, 100 μg/ml streptomycin, incubated with compounds for 1 hour at 37° C. and then stimulated with 50 μg/mL anti-human IgM F(ab′)2 for 72 hours. ^3H-thymidine was included in the culture media for the final 8-16 hours. Cells were harvested and ^3H-thymidine incorporation was measured.
Human B cell Proliferation Assay
(Incorporation of labelled thymidine or its analogues reports DNA synthesis.)

For assay [4], the system named is human whole blood. Briefly: Human Whole Blood Histamine Assay (anti-IgE induced histamine release). The format is cell-based. The settings on record: heparinized human whole blood, anti-human-IgE 2 μg/ml, histamine release by ELISA; read-out: HWB IC50. As for the experimental part: Human Whole Blood Histamine Assay
Heparinized human whole blood (200 μl) was plated in 96-well V-bottom assay plates (VWR). Compounds diluted in 100% DMSO (1 μl) were added and incubated at 37° C. for 120 minutes. Anti-human-IgE antibody (KPL) was added to a final concentration of 2 μg/ml and assay plates incubated for 30 minutes at 37° C. Plates were spun at 2000 rpm for 8 minutes and the analyzed for histamine release by ELISA kits (Beckman Coulter).
Inhibition curves and IC50 values are determined using Excel-fit.

Some results are limits rather than exact numbers.

Chain of human full-length BTK Kinase (Q06187 whole entry): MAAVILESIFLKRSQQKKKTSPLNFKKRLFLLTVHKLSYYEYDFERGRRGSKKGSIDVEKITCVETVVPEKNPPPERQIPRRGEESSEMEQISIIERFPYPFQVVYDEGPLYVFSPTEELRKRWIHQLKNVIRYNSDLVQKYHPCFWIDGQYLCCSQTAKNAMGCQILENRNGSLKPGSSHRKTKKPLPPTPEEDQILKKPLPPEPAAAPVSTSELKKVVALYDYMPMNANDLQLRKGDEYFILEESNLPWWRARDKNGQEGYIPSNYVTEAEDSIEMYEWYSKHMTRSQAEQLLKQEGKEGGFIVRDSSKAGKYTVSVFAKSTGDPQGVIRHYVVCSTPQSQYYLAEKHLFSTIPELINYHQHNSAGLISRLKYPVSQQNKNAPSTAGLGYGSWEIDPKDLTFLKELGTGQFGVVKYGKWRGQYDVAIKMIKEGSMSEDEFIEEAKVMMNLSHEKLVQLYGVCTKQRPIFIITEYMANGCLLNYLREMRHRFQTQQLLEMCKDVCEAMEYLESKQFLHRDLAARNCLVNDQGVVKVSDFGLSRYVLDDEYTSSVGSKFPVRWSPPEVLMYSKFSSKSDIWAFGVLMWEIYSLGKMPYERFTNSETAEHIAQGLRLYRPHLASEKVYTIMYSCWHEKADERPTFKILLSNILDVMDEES
Chain of human EGFR kinase domain (P00533 712-979): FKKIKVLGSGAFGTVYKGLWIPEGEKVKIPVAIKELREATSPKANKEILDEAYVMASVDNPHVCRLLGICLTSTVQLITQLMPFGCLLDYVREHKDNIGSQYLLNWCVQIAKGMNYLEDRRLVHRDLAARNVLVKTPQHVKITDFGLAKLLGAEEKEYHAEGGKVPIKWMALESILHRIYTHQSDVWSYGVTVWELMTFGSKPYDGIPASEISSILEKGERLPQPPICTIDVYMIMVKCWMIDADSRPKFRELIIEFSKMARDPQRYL

For `N#CN1CCCC(n2nc(-c3ccc(Oc4ccc(F)cc4F)cc3)c(C(N)=O)c2N)C1` (single isomer, unassigned) [Example 27], the IC50 turned out to be 1.3 nM in assay [1], 16800 nM in assay [2], 2.7 nM in assay [3] (B-cell) and 64.3 nM in assay [4].

With `N#CN1CCC[C@@H](n2nc(-c3ccc(Oc4ccc(Cl)cn4)cc3)c(C(N)=O)c2N)C1` [Example 110, (R)-5-amino-3-(4-((5-chloropyridin-2-yl)oxy)phenyl)-1-(1-cyanopiperidin-3-yl)-1H-pyrazole-4-carboxamide], the IC50 in assay [1] is 9.2 nM; in assay [2], more than 15400 nM; in assay [3] (B-cell) it was 1.6 nM; in assay [4] it was 94.7 nM.

For `N#CN1CCC[C@@H](n2nc(-c3ccc(Oc4cccc(C(F)(F)F)n4)cc3)c(C(N)=O)c2N)C1` [Example 116, (R)-5-amino-1-(1-cyanopiperidin-3-yl)-3-(4-((6-(trifluoromethyl)pyridin-2-yl)oxy)phenyl)-1H-pyrazole-4-carboxamide], the IC50 was 2.6 nM in assay [1], more than 26800 nM in assay [2], 14.9 nM in assay [3] (B-cell) and 41.8 nM in assay [4].

On to `N#CN1CCC[C@@H](n2nc(-c3ccc(Oc4ncc(Cl)cc4F)cc3)c(C(N)=O)c2N)C1` [Example 118, (R)-5-amino-3-(4-((5-chloro-3-fluoropyridin-2-yl)oxy)phenyl)-1-(1-cyanopiperidin-3-yl)-1H-pyrazole-4-carboxamide], for which the IC50 in assay [1] is 7.6 nM; in assay [2], more than 50000 nM; in assay [3] (B-cell) it was 29.6 nM; in assay [4] it was 50 nM.

On to `C=CC(=O)N1CCC[C@@H](n2nc(-c3ccc(Oc4ccc(Cl)cc4)cc3)c(C(N)=O)c2N)C1` [Example 130, 1-[(3R)-1-acryloylpiperidin-3-yl]-5-amino-3-[4-(4-chlorophenoxy)phenyl]-1H-pyrazole-4-carboxamide], for which the IC50 in assay [1] stood at 0.17 nM; in assay [2] it was 7.9 nM; in assay [3] (B-cell), 0.15 nM; in assay [4], 133 nM.

Regarding `NC(=O)c1c(-c2ccc(Oc3ccc(Cl)cc3)cc2)nn([C@@H]2CCCN(C(=O)/C=C/CO)C2)c1N` [Example 131, 5-amino-3-[4-(4-chlorophenoxy)phenyl]-1-{(3R)-1-[(2E)-4-hydroxybut-2-enoyl]piperidin-3-yl}-1H-pyrazole-4-carboxamide], the IC50 was determined as 2.3 nM in assay [1], 2200 nM in assay [2], 1.6 nM in assay [3] (B-cell) and 259 nM in assay [4].

`C=CC(=O)N1CCC[C@H](n2nc(-c3ccc(Oc4ccc(F)cc4F)cc3)c(C(N)=O)c2N)C1` [Example 136, 1-[(3S)-1-acryloylpiperidin-3-yl]-5-amino-3-[4-(2,4-difluorophenoxy)phenyl]-1H-pyrazole-4-carboxamide]: the IC50 in assay [1] is 7.8 nM; in assay [2] it was 214 nM; in assay [3] (Homo sapiens, B-cell), 0.44 nM; in assay [4] it was 570 nM.

Take `C=CC(=O)N1CCC[C@@H](n2nc(-c3ccc(Oc4ccc(F)cc4F)cc3)c(C(N)=O)c2N)C1` [Example 137, 1-[(3R)-1-acryloylpiperidin-3-yl]-5-amino-3-[4-(2,4-difluorophenoxy)phenyl]-1H-pyrazole-4-carboxamide]: the 50% inhibitory concentration (IC50) in assay [1] stood at 0.25 nM; in assay [2], 25.6 nM; in assay [3], 0.63 nM; in assay [4], 31.4 nM.

`NC(=O)c1c(-c2ccc(Oc3ccc(F)cc3F)cc2)nn([C@@H]2CCCN(C(=O)/C=C/CF)C2)c1N` [Example 145, 5-amino-3-[4-(2,4-difluorophenoxy)phenyl]-1-{(3R)-1-[(2E)-4-fluorobut-2-enoyl]piperidin-3-yl}-1H-pyrazole-4-carboxamide]: the half-maximal inhibitory concentration (IC50) in assay [1] is 2.8 nM; in assay [2], 2180 nM; in assay [3] (B-cell) it was 11.8 nM; in assay [4] it was 126 nM.

For the compound `NC(=O)c1c(-c2ccc(Oc3ccc(F)cc3F)cc2)nn([C@@H]2CCCN(C(=O)/C=C/CO)C2)c1N` [Example 151, 5-am no-3-[4-(2,4-difluorophenoxy)phenyl]-1-{(3R)-1-[(2E)-4-hydroxybut-2-enoyl]-piperidin-3-yl}-1H-pyrazole-4-carboxamide], the IC50 in assay [1] is 2.3 nM; in assay [2], 12100 nM; in assay [3] (B-cell), 0.22 nM; in assay [4], 258 nM.

`C=CC(=O)N1CCC[C@@H](n2nc(-c3ccc(Oc4ccc(Cl)cn4)cc3)c(C(N)=O)c2N)C1` [Example 157, 1-[(3R)-1-acryloylpiperidin-3-yl]-5-amino-3-{4-[(5-chloropyridin-2-yl)oxy]phenyl}-1H-pyrazole-4-carboxamide]: the 50% inhibitory concentration (IC50) is 1.3 nM in assay [1], 29.7 nM in assay [2], 24.2 nM in assay [3] (B-cell) and 98.7 nM in assay [4].

Turning to `C=CC(=O)N1CCC[C@@H](n2nc(-c3ccc(Oc4cccc(C(F)(F)F)n4)cc3)c(C(N)=O)c2N)C1` [Example 161, 1-[(3R)-1-acryloylpiperidin-3-yl]-5-amino-3-(4-{[6-(trifluoromethyl)pyridin-2-yl]oxy}phenyl)-1H-pyrazole-4-carboxamide], the half-maximal inhibitory concentration (IC50) in assay [1] turned out to be 1.2 nM; in assay [2], 89.8 nM; in assay [3] (B-cell), 3 nM; in assay [4], 52.7 nM.

For the compound `NC(=O)c1c(-c2ccc(Oc3cccc(C(F)(F)F)n3)cc2)nn([C@@H]2CCCN(C(=O)/C=C/CO)C2)c1N` [Example 162, 5-amino-1-{(3R)-1-[(2E)-4-hydroxybut-2-enoyl]piperidin-3-yl}-3-(4-{[6-(trifluoromethyl)pyridin-2-yl]oxy}phenyl)-1H-pyrazole-4-carboxamide], the half-maximal inhibitory concentration (IC50) came out at 9.8 nM in assay [1], 14100 nM in assay [2], 103 nM in assay [3] (B-cell) and 343 nM in assay [4].

Usually IC50 stands for the point on the concentration scale where inhibition reaches its midpoint.
